Experiment [1] is filed under the species Mus musculus. Nature of the experiment: Anti-inflammatory activity in mouse croton oil ear assay relative to clobetasol propionate. Type of experiment: functional.
The nature of experiment [2]: It is the ratio of topical(edema inhibition) to systemic (thymolysis) activities. Type of experiment: functional.
The species named for experiment [3] is Rattus norvegicus. Nature of the experiment: The thymolytic activity was measured relative to clobetasol propionate (CP=1) in rat granuloma pouch assay system. In kind it is functional.
Experiment [4] concerns the target T1, Glucocorticoid receptor (Rattus norvegicus, UniProt P06536).
T1 sequence (P06536 whole entry): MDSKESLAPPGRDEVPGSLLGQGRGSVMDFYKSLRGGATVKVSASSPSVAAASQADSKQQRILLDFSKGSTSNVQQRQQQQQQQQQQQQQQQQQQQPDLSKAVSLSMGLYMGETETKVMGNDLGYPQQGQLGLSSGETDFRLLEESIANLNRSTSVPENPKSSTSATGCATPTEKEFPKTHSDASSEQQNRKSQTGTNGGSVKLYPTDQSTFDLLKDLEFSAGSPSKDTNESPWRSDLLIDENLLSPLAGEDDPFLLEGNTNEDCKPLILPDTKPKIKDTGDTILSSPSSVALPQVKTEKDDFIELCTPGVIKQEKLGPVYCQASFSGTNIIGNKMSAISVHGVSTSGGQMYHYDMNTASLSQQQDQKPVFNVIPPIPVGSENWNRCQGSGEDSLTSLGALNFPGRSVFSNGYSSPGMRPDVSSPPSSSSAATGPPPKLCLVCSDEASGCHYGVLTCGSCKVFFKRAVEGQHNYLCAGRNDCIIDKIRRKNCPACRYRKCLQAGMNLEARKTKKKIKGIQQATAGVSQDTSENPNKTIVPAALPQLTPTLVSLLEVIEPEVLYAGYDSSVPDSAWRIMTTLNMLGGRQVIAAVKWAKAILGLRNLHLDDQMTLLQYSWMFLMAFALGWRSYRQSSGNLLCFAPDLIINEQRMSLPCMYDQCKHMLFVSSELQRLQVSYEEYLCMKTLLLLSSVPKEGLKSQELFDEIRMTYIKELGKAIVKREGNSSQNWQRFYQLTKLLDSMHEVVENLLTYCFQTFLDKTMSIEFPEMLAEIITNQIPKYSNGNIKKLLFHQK
Nature of the experiment: Competitive displacement of [3H]dexamethasone from glucocorticoid receptor of rat liver cytosol. In general terms: Loss of bound radioactivity is the signal in a displacement assay; it reports binding, not function.

Experiment [5] is filed under the species Rattus norvegicus. Nature of the experiment: The thymolytic activity was measured relative to clobetasol propionate (CP=1) in rat granuloma pouch assay system; granuloma inhibition or thymolytic activity was not detected up to 100 ug/pouch. Type of experiment: functional.

A value given as a limit tells only on which side of the number the result lay.

Regarding `CCOC(=O)CCC(=O)O[C@]1(C(=O)CCl)[C@@H](C)CC2C3CCC4=CC(=O)C=CC4(C)[C@@]3(F)[C@@H](O)CC21C` (stereo not given in full), the Fold_activity in experiment [1] was found to be 0.56.

The molecule `CSCC(=O)O[C@]1(C(=O)CCl)[C@@H](C)CC2C3CCC4=CC(=O)C=CC4(C)[C@@]3(F)[C@@H](O)CC21C` (stereo not given in full) returned a Fold_activity in experiment [1] of 0.35. Moreover, the Ratio in experiment [2] amounted to 1. In experiment [3], this molecule returned a Thymolysis of 0.35.

Consider `C[C@H]1CC2C3CCC4=CC(=O)C=CC4(C)[C@@]3(F)[C@@H](O)CC2(C)[C@@]1(OC(=O)CCl)C(=O)CCl` (stereo not given in full), for which, in experiment [1], the Fold_activity is reported as 0.25.

`CC(=O)OCCC(=O)O[C@]1(C(=O)CCl)[C@@H](C)CC2C3CCC4=CC(=O)C=CC4(C)[C@@]3(F)[C@@H](O)CC21C` (stereo not given in full): in experiment [1], the Fold_activity is recorded as 0.28. For the same molecule, the Ratio in experiment [2] is 18.6. This molecule also gave a Thymolysis in experiment [3] of 0.015.

`COC(=O)CCCC(=O)O[C@]1(C(=O)CCl)[C@@H](C)CC2C3CCC4=CC(=O)C=CC4(C)[C@@]3(F)[C@@H](O)CC21C` (stereo not given in full) displayed a Fold_activity in experiment [1] of 0.45.

In the case of `C[C@H]1CC2C3CCC4=CC(=O)C=CC4(C)[C@@]3(F)[C@@H](O)CC2(C)[C@@]1(OC(=O)CCC(=O)OC(C)(C)C)C(=O)CCl` (stereo not given in full), the IC50 in experiment [4] was 10.8 nM. Moreover, in experiment [1], the Fold_activity was 0.19.

For the molecule `C[C@H]1CC2C3CCC4=CC(=O)C=CC4(C)[C@@]3(F)[C@@H](O)CC2(C)[C@@]1(OC(=O)CCC#N)C(=O)CCl` (stereo not given in full), in experiment [1], the Fold_activity came to 0.07.

With `COCCC(=O)O[C@]1(C(=O)CCl)[C@@H](C)CC2C3CCC4=CC(=O)C=CC4(C)[C@@]3(F)[C@@H](O)CC21C` (stereo not given in full), in experiment [1], the Fold_activity came to 0.38. Also, in experiment [2], the Ratio was 7.6. For the same molecule, the Thymolysis in experiment [3] is recorded as 0.05.

In the case of `CCC(=O)O[C@]1(C(=O)CCl)[C@@H](C)C[C@H]2[C@@H]3CCC4=CC(=O)C=C[C@]4(C)[C@@]3(F)[C@@H](O)C[C@@]21C` [CLOBETASOL PROPIONATE], in experiment [4], the IC50 was found to be 3.17 nM. The molecule further gave a Fold_activity in experiment [1] of 1. Besides, the Ratio in experiment [2] was 1. The molecule further came in with a Thymolysis in experiment [3] of 1.

Regarding `COC(=O)CCC(=O)O[C@]1(C(=O)CCl)[C@@H](C)CC2C3CCC4=CC(=O)C=CC4(C)[C@@]3(F)[C@@H](O)CC21C` (stereo not given in full), in experiment [4], the IC50 was found to be 5.18 nM. Also, in experiment [1], the Fold_activity is 1.3. Moreover, the Ratio in experiment [2] was more than 130. Besides, the Thymolysis in experiment [5] was less than 0.01.

The molecule `COCC(=O)O[C@]1(C(=O)CCl)[C@@H](C)CC2C3CCC4=CC(=O)C=CC4(C)[C@@]3(F)[C@@H](O)CC21C` (stereo not given in full) had a Fold_activity in experiment [1] of 0.11.

Molecule `C[C@H]1CC2C3CCC4=CC(=O)C=CC4(C)[C@@]3(F)[C@@H](O)CC2(C)[C@@]1(OC(=O)C1CC1)C(=O)CCl` (stereo not given in full) registered a Fold_activity in experiment [1] of 0.44. In experiment [2], the Ratio was found to be 0.34. The Thymolysis in experiment [3] was 1.3.

As for `CCC(=O)OCC(=O)[C@@]1(OC(=O)CC)[C@@H](C)C[C@H]2[C@@H]3CCC4=CC(=O)C=C[C@]4(C)[C@@]3(F)[C@@H](O)C[C@@]21C` [BETAMETHASONE DIPROPIONATE], the Thymolysis in experiment [3] was 0.03.

Take `CCOC(=O)CCCC(=O)O[C@]1(C(=O)CCl)[C@@H](C)CC2C3CCC4=CC(=O)C=CC4(C)[C@@]3(F)[C@@H](O)CC21C` (stereo not given in full): the IC50 in experiment [4] came to 9.68 nM. Moreover, the Fold_activity in experiment [1] worked out at 0.68.

In experiment [1], `C[C@H]1CC2C3CCC4=CC(=O)C=CC4(C)[C@@]3(F)[C@@H](O)CC2(C)[C@@]1(OC(=O)CC1CC1)C(=O)CCl` (stereo not given in full) yielded a Fold_activity of 0.51. The Ratio in experiment [2] stood at 0.46. Besides, the Thymolysis in experiment [3] amounted to 1.1.

Take `C[C@H]1CC2C3CCC4=CC(=O)C=CC4(C)[C@@]3(F)[C@@H](O)CC2(C)[C@@]1(OC(=O)CCCCl)C(=O)CCl` (stereo not given in full): the Fold_activity in experiment [1] turned out to be 0.66. In addition, the Ratio in experiment [2] was found to be 5.5. In experiment [3], the Thymolysis was determined as 0.12.

In turn, `C[C@H]1CC2C3CCC4=CC(=O)C=CC4(C)[C@@]3(F)[C@@H](O)CC2(C)[C@@]1(OC(=O)CCC(=O)O)C(=O)CCl` (stereo not given in full) yielded an IC50 in experiment [4] of more than 150 nM. Besides, in experiment [1], the Fold_activity is less than 0.01.

In experiment [4], `CC(C)OC(=O)CCC(=O)O[C@]1(C(=O)CCl)[C@@H](C)CC2C3CCC4=CC(=O)C=CC4(C)[C@@]3(F)[C@@H](O)CC21C` (stereo not given in full) gave an IC50 of 12.1 nM. The molecule also displayed a Fold_activity in experiment [1] of 0.11.

In general, IC50 refers to the midpoint of a concentration-inhibition curve. A low value points to inhibition by little substance.
